Assay results published in paper PMC12700559, “Structural basis for simvastatin-induced skeletal muscle weakness associated with type 1 ryanodine receptor T4709M mutation” (The Journal of Clinical Investigation, 2025).
pKd: −log10 of the molar value.

What was measured:
[1] = target: T1, type 1 ryanodine receptor (RyR1) (Mus musculus, UniProt E9PZQ0); test: [3H]simvastatin radioligand binding; single-channel recordings show activation
T1 construct: recombinant WT RyR1 on HEK293 ER microsomes (also endogenous RyR1 from mouse skeletal muscle)
T1 sequence (E9PZQ0 whole entry): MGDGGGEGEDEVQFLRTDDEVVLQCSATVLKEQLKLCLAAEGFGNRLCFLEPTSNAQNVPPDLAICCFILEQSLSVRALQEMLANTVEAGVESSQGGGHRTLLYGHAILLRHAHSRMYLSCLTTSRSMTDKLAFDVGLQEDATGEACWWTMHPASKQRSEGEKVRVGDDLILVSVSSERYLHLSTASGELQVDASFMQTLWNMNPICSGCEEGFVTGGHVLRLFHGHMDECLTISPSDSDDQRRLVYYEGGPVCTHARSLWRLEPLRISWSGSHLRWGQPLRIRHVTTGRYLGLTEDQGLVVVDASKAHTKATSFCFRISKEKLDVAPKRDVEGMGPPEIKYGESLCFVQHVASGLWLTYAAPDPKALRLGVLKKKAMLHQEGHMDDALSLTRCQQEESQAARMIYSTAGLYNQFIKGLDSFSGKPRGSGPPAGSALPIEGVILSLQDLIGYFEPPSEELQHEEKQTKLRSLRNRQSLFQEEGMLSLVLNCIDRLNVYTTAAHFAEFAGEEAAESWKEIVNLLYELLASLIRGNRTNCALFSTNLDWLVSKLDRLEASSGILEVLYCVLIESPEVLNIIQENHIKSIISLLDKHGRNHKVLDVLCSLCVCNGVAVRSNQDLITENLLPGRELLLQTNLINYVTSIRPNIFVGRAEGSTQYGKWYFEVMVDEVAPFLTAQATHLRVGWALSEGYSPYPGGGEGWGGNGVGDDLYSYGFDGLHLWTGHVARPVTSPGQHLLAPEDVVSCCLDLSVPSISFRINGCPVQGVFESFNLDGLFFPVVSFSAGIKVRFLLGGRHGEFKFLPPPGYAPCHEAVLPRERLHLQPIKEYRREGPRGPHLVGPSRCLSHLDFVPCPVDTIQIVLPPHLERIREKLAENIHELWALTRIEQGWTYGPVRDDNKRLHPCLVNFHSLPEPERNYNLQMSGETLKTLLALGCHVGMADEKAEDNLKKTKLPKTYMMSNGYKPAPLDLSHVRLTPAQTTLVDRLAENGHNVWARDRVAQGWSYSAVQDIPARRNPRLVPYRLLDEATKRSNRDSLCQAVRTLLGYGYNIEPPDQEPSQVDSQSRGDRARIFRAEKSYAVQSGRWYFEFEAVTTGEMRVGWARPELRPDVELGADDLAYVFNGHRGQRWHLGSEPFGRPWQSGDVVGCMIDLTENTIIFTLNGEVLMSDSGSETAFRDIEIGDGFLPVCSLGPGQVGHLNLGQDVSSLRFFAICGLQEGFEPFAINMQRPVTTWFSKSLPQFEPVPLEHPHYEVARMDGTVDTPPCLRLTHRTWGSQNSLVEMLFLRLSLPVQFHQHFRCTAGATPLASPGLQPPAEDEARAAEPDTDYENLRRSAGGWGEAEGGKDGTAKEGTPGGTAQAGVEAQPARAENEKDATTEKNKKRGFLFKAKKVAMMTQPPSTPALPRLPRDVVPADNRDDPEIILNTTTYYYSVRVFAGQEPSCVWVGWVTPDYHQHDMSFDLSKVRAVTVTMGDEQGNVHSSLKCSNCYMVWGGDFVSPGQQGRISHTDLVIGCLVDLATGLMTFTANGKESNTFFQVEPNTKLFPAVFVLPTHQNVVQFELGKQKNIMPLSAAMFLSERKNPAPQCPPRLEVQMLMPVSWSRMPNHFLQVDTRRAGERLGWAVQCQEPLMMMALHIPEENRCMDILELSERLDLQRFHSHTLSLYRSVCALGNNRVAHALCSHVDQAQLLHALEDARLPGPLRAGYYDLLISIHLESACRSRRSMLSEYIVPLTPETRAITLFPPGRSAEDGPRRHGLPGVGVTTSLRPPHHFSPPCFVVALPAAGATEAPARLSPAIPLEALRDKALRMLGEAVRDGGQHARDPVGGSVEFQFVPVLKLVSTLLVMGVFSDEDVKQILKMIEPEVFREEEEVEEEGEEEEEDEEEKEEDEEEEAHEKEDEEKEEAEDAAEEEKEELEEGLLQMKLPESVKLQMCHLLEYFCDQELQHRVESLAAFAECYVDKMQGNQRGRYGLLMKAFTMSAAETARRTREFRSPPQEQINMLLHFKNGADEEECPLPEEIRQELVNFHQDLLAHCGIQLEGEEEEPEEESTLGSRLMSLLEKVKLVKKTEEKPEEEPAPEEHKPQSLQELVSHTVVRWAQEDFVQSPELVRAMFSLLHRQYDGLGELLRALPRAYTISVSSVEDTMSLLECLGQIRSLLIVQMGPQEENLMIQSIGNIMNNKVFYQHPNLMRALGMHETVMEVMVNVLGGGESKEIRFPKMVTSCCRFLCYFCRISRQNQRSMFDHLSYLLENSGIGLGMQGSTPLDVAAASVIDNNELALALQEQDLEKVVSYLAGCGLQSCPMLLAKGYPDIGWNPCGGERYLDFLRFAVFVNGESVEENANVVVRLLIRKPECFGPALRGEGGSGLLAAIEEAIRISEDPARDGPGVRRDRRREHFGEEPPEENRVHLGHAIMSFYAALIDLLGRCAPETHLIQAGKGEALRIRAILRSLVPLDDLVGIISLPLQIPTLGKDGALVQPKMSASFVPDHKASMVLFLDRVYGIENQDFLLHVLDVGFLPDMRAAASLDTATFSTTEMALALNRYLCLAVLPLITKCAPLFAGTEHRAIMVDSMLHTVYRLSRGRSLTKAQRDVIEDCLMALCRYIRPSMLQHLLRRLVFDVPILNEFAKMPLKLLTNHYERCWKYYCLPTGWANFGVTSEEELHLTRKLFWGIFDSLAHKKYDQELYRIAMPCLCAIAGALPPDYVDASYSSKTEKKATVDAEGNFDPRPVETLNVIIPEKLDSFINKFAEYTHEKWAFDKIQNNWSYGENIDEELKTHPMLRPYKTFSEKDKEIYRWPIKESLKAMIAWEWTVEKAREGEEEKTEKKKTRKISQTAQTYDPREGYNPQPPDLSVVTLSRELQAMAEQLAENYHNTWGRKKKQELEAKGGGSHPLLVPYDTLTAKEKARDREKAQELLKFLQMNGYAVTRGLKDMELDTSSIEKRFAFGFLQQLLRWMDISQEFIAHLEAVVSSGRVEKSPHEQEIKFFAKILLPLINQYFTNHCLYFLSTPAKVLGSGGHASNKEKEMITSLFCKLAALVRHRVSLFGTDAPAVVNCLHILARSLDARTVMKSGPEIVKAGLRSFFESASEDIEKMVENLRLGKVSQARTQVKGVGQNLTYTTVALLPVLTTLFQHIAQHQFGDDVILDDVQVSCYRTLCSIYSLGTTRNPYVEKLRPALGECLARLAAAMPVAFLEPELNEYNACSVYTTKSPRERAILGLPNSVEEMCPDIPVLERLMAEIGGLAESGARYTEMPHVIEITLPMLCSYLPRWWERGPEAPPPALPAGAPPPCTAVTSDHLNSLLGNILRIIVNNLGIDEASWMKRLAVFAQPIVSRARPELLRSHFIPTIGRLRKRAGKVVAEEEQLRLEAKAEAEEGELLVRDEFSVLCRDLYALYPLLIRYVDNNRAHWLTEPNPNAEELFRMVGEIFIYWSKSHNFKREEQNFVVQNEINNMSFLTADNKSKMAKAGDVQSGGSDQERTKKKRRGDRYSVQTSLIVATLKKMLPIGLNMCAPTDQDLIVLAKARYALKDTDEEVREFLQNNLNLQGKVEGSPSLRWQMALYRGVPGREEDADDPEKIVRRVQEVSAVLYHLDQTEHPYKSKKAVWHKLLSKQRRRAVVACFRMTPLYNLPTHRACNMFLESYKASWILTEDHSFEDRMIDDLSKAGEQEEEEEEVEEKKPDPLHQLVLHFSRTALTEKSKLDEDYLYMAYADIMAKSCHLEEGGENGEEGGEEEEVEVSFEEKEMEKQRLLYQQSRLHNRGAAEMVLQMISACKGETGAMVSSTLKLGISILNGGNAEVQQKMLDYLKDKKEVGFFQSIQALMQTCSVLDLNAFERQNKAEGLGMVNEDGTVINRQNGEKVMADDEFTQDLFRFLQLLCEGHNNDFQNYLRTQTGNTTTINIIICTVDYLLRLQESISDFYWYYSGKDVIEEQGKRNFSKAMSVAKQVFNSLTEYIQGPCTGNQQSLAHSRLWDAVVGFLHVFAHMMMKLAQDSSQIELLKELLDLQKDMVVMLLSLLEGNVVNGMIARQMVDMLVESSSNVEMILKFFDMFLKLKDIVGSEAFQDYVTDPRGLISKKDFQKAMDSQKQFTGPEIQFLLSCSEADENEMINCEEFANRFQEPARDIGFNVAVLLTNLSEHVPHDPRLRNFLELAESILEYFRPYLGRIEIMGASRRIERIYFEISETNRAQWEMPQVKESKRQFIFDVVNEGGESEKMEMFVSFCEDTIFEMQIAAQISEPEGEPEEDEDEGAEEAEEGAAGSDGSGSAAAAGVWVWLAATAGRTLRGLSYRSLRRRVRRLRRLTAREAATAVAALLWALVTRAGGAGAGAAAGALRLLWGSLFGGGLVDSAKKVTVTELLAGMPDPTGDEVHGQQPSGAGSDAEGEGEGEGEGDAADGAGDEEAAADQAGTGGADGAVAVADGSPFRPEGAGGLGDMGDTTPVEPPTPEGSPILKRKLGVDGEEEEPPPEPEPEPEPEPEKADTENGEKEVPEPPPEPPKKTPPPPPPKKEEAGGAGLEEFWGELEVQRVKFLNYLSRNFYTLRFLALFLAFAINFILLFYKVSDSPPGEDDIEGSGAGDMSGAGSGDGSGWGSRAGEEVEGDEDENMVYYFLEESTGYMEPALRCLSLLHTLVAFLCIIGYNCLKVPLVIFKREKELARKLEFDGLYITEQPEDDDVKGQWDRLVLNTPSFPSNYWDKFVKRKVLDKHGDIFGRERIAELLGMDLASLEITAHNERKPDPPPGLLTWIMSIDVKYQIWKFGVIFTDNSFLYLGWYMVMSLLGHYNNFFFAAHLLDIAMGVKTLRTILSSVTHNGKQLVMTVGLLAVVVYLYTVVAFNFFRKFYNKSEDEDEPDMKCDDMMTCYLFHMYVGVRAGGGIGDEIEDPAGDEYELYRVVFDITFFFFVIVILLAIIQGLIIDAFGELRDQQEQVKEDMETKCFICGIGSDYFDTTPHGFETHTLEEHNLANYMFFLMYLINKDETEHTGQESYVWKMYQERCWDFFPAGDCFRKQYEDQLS

RyR1 BSM1 mutant = target: T2, RyR1 BSM1 mutant (Mus musculus, UniProt E9PZQ0, W4792A); test: [3H]simvastatin radioligand binding
T2 construct: recombinant RyR1 on HEK293 ER microsomes
T2 sequence (E9PZQ0 whole entry W4792A): as the sequence (E9PZQ0 whole entry) above, with W4792A counted along it

## CCC(C)(C)C(=O)O[C@H]1C[C@@H](C)C=C2C=C[C@H](C)[C@H](CC[C@@H](O)C[C@@H](O)CC(=O)O)[C@H]21 [simvastatin acid]
[1]
  pKd: 6.16
RyR1 BSM1 mutant
  pKd: ~5.15
